Measured values: patent US5714476A, “Process for preparing compositions containing neotrehalose” (Kabushiki Kaisha Hayashibara Seibutsu Kagaku Kenkyujo, priority 1990, dated 1998)

Experiments:
Heat of dissolution = format: physicochemical; conditions: crystal
Excerpt: The physicochemical properties of lactoneotrehalose were studied with a high-purity crystalline lactoneotrehalose specimen prepared by the method in Experiment 1-1.

[1] = Hygroscopicity and deliquescence; format: physicochemical; conditions: crystal
Excerpt: (§1) The physicochemical properties of neotrehalose were studied with a high-purity crystalline neotrehalose specimen prepared by the method in Experiment 2-1.

[2] = Acidity of aqueous solution; format: physicochemical
Excerpt: as §1

β-galactosidase = assay: Action of β-galactosidase; format: biochemical
β-glucosidase = assay: Action of β-glucosidase; format: biochemical
[3] = Solubility in water at 25° C.; format: physicochemical; conditions: crystal in the form of anhydride, in 100 g water at 25° C.
Excerpt: as §1

Solubility in solvents = format: physicochemical
Excerpt: as §1

α-glucosidase = assay: Action of α-glucosidase; format: biochemical
Excerpt: as §1

trehalase = assay: Hydrolysis by trehalase; format: biochemical
Excerpt: as §1

[4] = Digestion test: oral load test, blood sugar and insulin levels; format: in vivo; conditions: healthy volunteers
Excerpt: In accordance with the method described in H. Atsuji et al., Journal of Clinical Nutrition, Vol.41, Vol.2, pp.200-208 (1972), the load test by orally-administering to healthy volunteers a crystalline neotrehalose specimen prepared by the method in Experiment 2-1 was done, and their blood was sampled at prescribed time intervals and subjected to the measurements of the blood sugar and insulin levels. As control, glucose was used.

7 week-old dd mice = assay: Acute toxicity, oral, mice; format: in vivo
Excerpt: A crystalline neotrehalose specimen, prepared by the method in Experiment 2-1, was orally administered to 7 week-old dd mice for acute toxicity test.

For OC[C@H]1O[C@@H](O[C@H]2[C@H](O)[C@@H](O)[C@H](O[C@H]3O[C@H](CO)[C@@H](O)[C@H](O)[C@H]3O)O[C@@H]2CO)[C@H](O)[C@@H](O)[C@H]1O [lactoneotrehalose, O-β-D-galactopyranosyl-(1→4)-O-β-D-glucopyranosyl α-D-glucopyranoside], which Heat of dissolution (Heat of dissolution) is on record?
The Heat of dissolution was 20.0 cal/g.

What about the hygroscopicity and deliquescence [1] of the same compound?
Its hygroscopicity and deliquescence is “Free of hygroscopicity and deliquescence”.

What about the “acidity of an aqueous solution of the crystal” value [2] of the same compound?
The value was “neutral or slight acidity”.

And the “products formed by the action of β-galactosidase” value (β-galactosidase)?
The value was “D-galactose and neotrehalose are formed”.

And the “products formed by the action of β-glucosidase” value (β-glucosidase)?
The value was “D-glucose and lactose are formed”.

With OC[C@H]1O[C@@H](O[C@H]2O[C@H](CO)[C@@H](O)[C@H](O)[C@H]2O)[C@H](O)[C@@H](O)[C@@H]1O [neotrehalose, O-α-D-glucopyranosyl β-D-glucopyranoside] as the compound, how does the Solubility [3] read?
Its Solubility is “Fifty-five”.

And the Solubility in solvents (Solubility in solvents; 0.1N hydrochloric acid)?
The Solubility in solvents was “Readily soluble”.

And the Solubility in solvents (Solubility in solvents; 0.1N sodium hydroxide)?
The Solubility in solvents was “Readily soluble”.

What about the Solubility in solvents (Solubility in solvents; chloroform) of the same compound?
The Solubility in solvents was “insoluble”.

What about the Solubility in solvents (Solubility in solvents; ethanol) of the same compound?
The Solubility in solvents was “scarcely soluble”.

What about the Solubility in solvents (Solubility in solvents; ethyl acetate) of the same compound?
The Solubility in solvents was “insoluble”.

And the Solubility in solvents (Solubility in solvents; methanol)?
The Solubility in solvents was “scarcely soluble”.

And the Solubility in solvents (Solubility in solvents; water)?
Its Solubility in solvents is “Readily soluble”.

And the hygroscopicity and deliquescence [1]?
The hygroscopicity and deliquescence was “Free of hygroscopicity and deliquescence”.

What about the “acidity of an aqueous solution of the crystal” value [2] of the same compound?
The value was “neutral or slight acidity”.

And the “product formed by the action of α-glucosidase” value (α-glucosidase)?
The value was “D-glucose is formed”.

And the hydrolysis by trehalase (trehalase)?
The hydrolysis by trehalase was “not hydrolyzed by trehalase”.

And the “digestion, absorption, metabolism and utilization” value [4]?
Its value is “readily digested, absorbed, metabolized and utilized into energy”.

And the “time of maximum level of blood sugar after the administration” value [4]?
Its value is 0.5 to 1 h.

And the “time of maximum level of insulin after the administration” value [4]?
Its value is 0.5 to 1 h.

What about the “blood sugar and insulin behaviour compared with glucose” value ([4]; control glucose) of the same compound?
Its value is “behaved similarly as to glucose”.

What about the toxicity (7 week-old dd mice) of the same compound?
Its toxicity is “extremely low”.

And the animal death (7 week-old dd mice; up to 5 g of the specimen, higher dose was difficult to do)?
Its animal death is “no animal death was noted”.
